B1: K28L: variant anti-CD19 CAR / junction region with K28L, numbering SEQ ID NO:5 (protein)
chain: FWVLVVVGGVLACYSLLVTVAFIIFWVLRGRKKLLYIFKQPFMRPVQTTQEEDGCSCRFPEEEEGGCEL
modifications: CD28-4-1BB

How the values were obtained:
Experiment in all cases: REVEAL Epitope Discovery System in vitro MHC-peptide binding score
[1] = molecular target: HLA-A*02:01 (Homo sapiens, UniProt P04439, D140Y/D185E/D98H/E176V/E277Q/G131W/G231S/I119V/I121R/I166T/I218V/L300P/L318F/N151K/N90K/P208A/P217A/Q86G/Q94H/R138H/R169H/T345S); details: for A*02:01 In Vitro Score: REVEAL score, positive control peptide set at 100%, greater than 50 = good or high affinity binding
Procedure: (§1) Actual binding affinities for certain HLA class I alleles (A*02:01, A*03:01. A*11:01, and B*08:01) were assessed in vitro for exemplary overlapping 9 amino acid peptide sequences within a portion of the 26 amino acid junction region spanning the CD28 and 4-1BB junction. Specifically, assessment was of a series of overlapping 9-mer peptides derived from the sequence […] (set forth in SEQ ID NO: 7), which contains a portion of the CD28 transmembrane domain and 4-1BB costimulatory domain spanning the junction between the domains (bond joining the two amino acids noted in underline). In addition, a series of overlapping 9-mer peptides of each of a number of different variants of this portion also were assessed, each variant containing a mutation or mutations in this region as described in Example 2.
(§2) The various 9-mer overlapping peptides were synthesized and their purity tested by MALDI-TOF Mass Spectrometry. The synthetic peptides were then incubated with recombinant MHC molecules to assess binding properties using the REVEAL Epitope Discovery System, which is a high-throughput binding assay that measures the degree to which each peptide is able to stabilize a ternary MHC-peptide complex (ProImmune, Oxford, United Kingdom). Each peptide was separately tested for this ability with respect to each of the HLA class I alleles, normalized to the degree observed for a positive control (known T cell epitope for the relevant allele). The results are reported as a score, in which the binding was normalized to the positive control peptide set at 100%.

[2] = molecular target: HLA-A*03:01 (Homo sapiens, UniProt P04439); details: positive control peptide set at 100%, greater than 50 = good or high affinity binding
Procedure: as §1, §2

[3] = molecular target: HLA-A*11:01 (Homo sapiens, UniProt P04439, A114D/D185E/E176A/F33Y/L180Q/S129P/T187R); set-up: key: % binding, normalized to positive control peptide set at 100%; details: binding normalized to positive control peptide set at 100%, greater than 50 considered good or high affinity binding
Procedure: as §1, §2

[4] = molecular target: HLA-B*08:01 (Homo sapiens, UniProt P01889, A93T/A95T/D138N/E176V/E187T/K202T/Q94N/R180D/S35A/V36M/Y33D/Y91F); set-up: key: % binding, normalized to positive control peptide set at 100%; details: binding normalized to positive control peptide set at 100%, greater than 50 considered good or high affinity binding
Procedure: as §1, §2

Molecule	A*02:01 In Vitro Score [1]	A*03:01 In Vitro [2]	A*11:01 In Vitro Score [3]	B*08:01 In Vitro Score [4]	predicted or actual binding affinity or score for HLA class I ([1]; for at least one HLA allele (A*02:01, A*03:01, A*11:01, B*08:01) and/or at least one peptide, in silico or in vitro)
AFIIFWVAR [9-mer variant junction peptide, K28A]	2.20	0.50	51.80	0.20	–
AFIIFWVHR [9-mer variant junction peptide, K28H]	0.30	0.30	34.90	0.30	–
AFIIFWVSR [9-mer variant junction peptide, K28S]	4.50	0.30	54.00	0.30	–
FIIFWVHRG [9-mer variant junction peptide, K28H]	37.30	0.00	0.90	0.20	–
FWVARGRKK [9-mer variant junction peptide, K28A]	–	–	8.90	–	–
FWVKRGLKK [9-mer variant junction peptide, R31L]	9.40	–	–	6.30	–
FWVKRGNKK [9-mer variant junction peptide, R31N]	8.70	–	–	–	–
IFWVARGRK [9-mer variant junction peptide, K28A]	1.00	53.70	34.90	0.00	–
IFWVHRGRK [9-mer variant junction peptide, K28H]	7.10	37.80	36.60	0.10	–
IFWVKRGAK [9-mer variant junction peptide, R31A]	13.80	22.00	69.70	2.20	–
IFWVKRGHK [9-mer variant junction peptide, R31H]	2.20	9.00	30.90	3.20	–
IFWVKRGLK [9-mer variant junction peptide, R31L]	2.40	26.90	61.10	58.30	–
IFWVKRGNK [9-mer variant junction peptide, R31N]	3.50	8.00	45.90	0.10	–
IFWVKRGSK [9-mer variant junction peptide, R31S]	2.40	10.40	47.90	1.20	–
IFWVQRGAK [9-mer variant junction peptide, K28Q/R31A]	11.70	17.00	61.30	0.20	–
IFWVQRGNK [9-mer variant junction peptide, K28Q/R31N]	16.10	23.20	67.50	0.10	–

Molecule	A*02:01 In Vitro Score [1]	A*03:01 In Vitro [2]	A*11:01 In Vitro Score [3]	B*08:01 In Vitro Score [4]	predicted or actual binding affinity or score for HLA class I ([1]; for at least one HLA allele (A*02:01, A*03:01, A*11:01, B*08:01) and/or at least one peptide, in silico or in vitro)
IFWVQRGRK [9-mer variant junction peptide, K28Q]	6.10	36.70	128.50	0.00	–
IFWVSRGRK [9-mer variant junction peptide, K28S]	1.30	39.20	39.20	0.00	–
IIFWVARGR [9-mer variant junction peptide, K28A]	9.60	18.60	70.60	0.30	–
IIFWVHRGR [9-mer variant junction peptide, K28H]	4.70	30.10	77.50	0.20	–
IIFWVKRGA [9-mer variant junction peptide, R31A]	85.90	42.90	22.60	0.90	–
IIFWVKRGL [9-mer variant junction peptide, R31L]	82.20	15.90	32.40	1.70	–
IIFWVKRGN [9-mer variant junction peptide, R31N]	9.30	4.30	42.10	0.90	–
IIFWVKRGR [9-mer of CD28/4-1BB junction region, mutation none]	1.70	24.30	54.50	0.00	–
IIFWVKRGS [9-mer variant junction peptide, R31S]	13.60	16.20	100.00	0.40	–
IIFWVLRGR [9-mer variant junction peptide, K28L]	8.40	2.80	35.20	0.40	–
IIFWVQRGA [9-mer variant junction peptide, K28Q/R31A]	95.30	2.70	56.50	0.20	–
IIFWVQRGR [9-mer variant junction peptide, K28Q]	5.80	18.00	72.80	0.10	–
IIFWVSRGR [9-mer variant junction peptide, K28S]	2.60	25.30	68.90	0.00	–
VAFIIFWVK [9-mer of CD28/4-1BB junction region, mutation none]	0.70	1.50	109.20	0.30	–
WVQRGNKKS [9-mer variant junction peptide, mutation printed K28Q/L34S]	–	–	5.00	–	–
B1	–	–	–	–	reduced predicted or actual binding affinity or score
